Laboratory results from patent publication US11207283B2 (priority 2016, dated 2021).

Legend:
GABA-AT = details: cited from earlier work
[1] = tested on: Type I T. gondii tachyzoites; experiment: Effect of TgOAT inactivators on T. gondii in vitro (YFP RH tachyzoites in HFF); format: cell-based, Toxoplasma gondii; details: HFF host cells, 72 hours, tested into the millimolar range
Procedure: HFFs were grown to confluence in black, flat-bottomed 96-well microplates. […] Control triplicates with only fibroblasts and with pyrimethamine and sulfadiazine (the current standard of treatment of T. gondii infection) were also conducted. The cells and parasites were then incubated at 37° C. for 72 hours. Fluorescence was measured using a Bio-Tek Synergy™ H4 Hybrid Multi-Mode Microplate Reader.

TgOAT = details: for KI (inactivation): read-out: KI (inhibition constant of inactivation), 10 mM L-ornithine; for KI (inactivation) / kinact/KI / kinact (rate constant of enzyme inactivation): time-dependent inactivators; for KI (inactivation) / kinact (rate constant of enzyme inactivation): pH 8.0, 37° C.; for activity in inactivating TgOAT (in words): summary of Table 1; for selectivity of inactivation, TgOAT versus GABA-AT and human OAT (in words): compared with literature data on GABA-AT and human OAT; for Ki: read-out: Ki (reversible inhibition), reversible inhibitors, calculated from the IC50 value
human OAT = molecular target: T1, human OAT (Homo sapiens, UniProt P04181); details: cited from earlier work
T1 sequence (P04181 36-439 limits assumed): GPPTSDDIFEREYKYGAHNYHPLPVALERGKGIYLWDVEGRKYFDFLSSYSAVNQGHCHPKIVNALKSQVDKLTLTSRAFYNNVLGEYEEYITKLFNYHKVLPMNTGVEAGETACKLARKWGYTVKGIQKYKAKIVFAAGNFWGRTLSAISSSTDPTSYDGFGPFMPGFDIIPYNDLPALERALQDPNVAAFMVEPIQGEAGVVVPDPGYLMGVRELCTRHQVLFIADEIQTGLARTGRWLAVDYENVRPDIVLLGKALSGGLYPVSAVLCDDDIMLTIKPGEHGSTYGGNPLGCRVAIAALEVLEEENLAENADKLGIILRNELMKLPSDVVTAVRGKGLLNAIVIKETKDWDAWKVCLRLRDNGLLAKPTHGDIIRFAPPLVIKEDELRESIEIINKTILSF

[2] = tested on: P. falciparum parasite, D6 (Sierra Leone); experiment: Malaria SYBR Green I-based fluorescence (MSF) assay; format: cell-based, Plasmodium falciparum; details: concentrations up to 10000 ng/mL, data not shown
[3] = tested on: glutamate decarboxylase (GAD); details: cited from earlier work
[4] = tested on: aspartate aminotransferase (AspAT); details: cited from earlier work

Compound | activity against GABA-AT (in words) (GABA-AT) | KI (inactivation) (TgOAT) | kinact/KI (TgOAT) | kinact (rate constant of enzyme inactivation) (TgOAT) | further results
NC(CF)CCC(=O)O (stereo not shown) [5-Fluoro-4-aminopentanoic acid, reference compound] | very efficient inactivator |  |  |  | 
N[C@H]1C[C@@H](C(=O)O)CC1=C(F)F [Compound 1] | extremely potent inactivator | 4.4 µM | 41670 M⁻¹ s⁻¹ | 11 min⁻¹ | inhibition of tachyzoite replication in vitro [1]: no effects on active T. gondii infection; activity in inactivating TgOAT (in words) (TgOAT): high activity in inactivating TgOAT; activity against human OAT (in words) (human OAT): potent inactivator; antimalarial activity in live-cell parasite assay [2]: no antimalarial activity
NC1CC(C(=O)O)CC1=C(C(F)(F)F)C(F)(F)F (stereo not shown) [Compound 2] | weak reversible inhibitor | 4.8 µM | 15300 M⁻¹ s⁻¹ | 4.4 min⁻¹ | inhibition of tachyzoite replication in vitro [1]: no effects on active T. gondii infection; activity in inactivating TgOAT (in words) (TgOAT): high activity in inactivating TgOAT; activity against human OAT (in words) (human OAT): highly potent inactivator; antimalarial activity in live-cell parasite assay [2]: no antimalarial activity
NC1CC(C(=O)O)CC1=CC(F)(F)F (stereo not shown) [Compound 3] |  | 30 µM | 83.3 M⁻¹ s⁻¹ | 0.15 min⁻¹ | 
NC1CC(C(=O)O)CC1=CC(F)(F)F (stereo not shown) [Compound 4] |  | 21 µM | 183 M⁻¹ s⁻¹ | 0.23 min⁻¹ | 
NC1CC(C(=O)O)CC1=C(Cl)Cl (stereo not shown) [Compound 5] | very weak reversible inhibitor | 15 µM | 4830 M⁻¹ s⁻¹ | 4.4 min⁻¹ | inhibition of tachyzoite replication in vitro [1]: no effects on active T. gondii infection; selectivity of inactivation, TgOAT versus GABA-AT and human OAT (in words) (TgOAT): high specific inactivation towards TgOAT but not GABA-AT or human OAT; activity in inactivating TgOAT (in words) (TgOAT): high activity in inactivating TgOAT; activity against human OAT (in words) (human OAT): very weak reversible inhibitor; antimalarial activity in live-cell parasite assay [2]: no antimalarial activity
NC1CC(C(=O)O)C=C1C(F)(F)C(F)(F)F (stereo not shown) [Compound 6] |  | 21 µM | 167 M⁻¹ s⁻¹ | 0.21 min⁻¹ | 
NC1CC(C(=O)O)CC1F (stereo not shown) [Compound 7] |  | 2100 µM | 86.7 M⁻¹ s⁻¹ | 11 min⁻¹ | 
NC1CC(C(=O)O)CC1(F)F (stereo not shown) [Compound 8] |  | 130 µM | 1000 M⁻¹ s⁻¹ | 7.8 min⁻¹ | off-target activity at GAD (in words) [3]: significant
NC1CC(C(=O)O)CC1Br (stereo not shown) [Compound 9] |  | 2600 µM | 31.7 M⁻¹ s⁻¹ | 5.0 min⁻¹ | 
NC1C(F)CC(C(=O)O)C1Br (stereo not shown) [Compound 10] |  | 110 µM | 583 M⁻¹ s⁻¹ | 3.9 min⁻¹ | 
NCc1c(CC(=O)O)cccc1C(F)(F)F [Compound 11] | weak reversible inhibitor | 15 µM | 6000 M⁻¹ s⁻¹ | 5.4 min⁻¹ | inhibition of tachyzoite replication in vitro [1]: no effects on active T. gondii infection; selectivity of inactivation, TgOAT versus GABA-AT and human OAT (in words) (TgOAT): high specific inactivation towards TgOAT but not GABA-AT or human OAT; activity in inactivating TgOAT (in words) (TgOAT): high activity in inactivating TgOAT; activity against human OAT (in words) (human OAT): weak inactivator; antimalarial activity in live-cell parasite assay [2]: no antimalarial activity
C[C@@H](F)[C@@H](N)CCC(=O)O [Compound 12] |  |  |  |  | Ki (TgOAT): 2900 µM
NCc1cocc1C(=O)O [Compound 13] |  |  |  |  | Ki (TgOAT): > 5000 µM
NCc1cscc1C(=O)O [Compound 14] |  |  |  |  | Ki (TgOAT): 4200 µM
NCc1csc(C(=O)O)c1 [Compound 15] |  |  |  |  | Ki (TgOAT): 4900 µM
NCc1ccc(C(=O)O)s1 [Compound 16] |  |  |  |  | Ki (TgOAT): > 5000 µM
NCc1c[nH]c(C(=O)O)c1 [Compound 17] |  |  |  |  | Ki (TgOAT): > 5000 µM
N[C@H](CF)CCC(=O)O [Compound 18, (S)-4-amino-5-fluoropentanoic acid] | moderate inactivator | 4.6 µM | 36670 M⁻¹ s⁻¹ | 10 min⁻¹ | inhibition of tachyzoite replication in vitro [1]: no effects on active T. gondii infection; selectivity of inactivation, TgOAT versus GABA-AT and human OAT (in words) (TgOAT): high specific inactivation towards TgOAT but not GABA-AT or human OAT; activity in inactivating TgOAT (in words) (TgOAT): high activity in inactivating TgOAT; activity against human OAT (in words) (human OAT): moderate inactivator; antimalarial activity in live-cell parasite assay [2]: no antimalarial activity
C=CC(N)CCC(=O)O (stereo not shown) [Compound 22, 4-am inohex-5-enoic acid, reference compound] |  | 440 µM | 383 M⁻¹ s⁻¹ | 9.9 min⁻¹ | off-target activity at GAD (in words) [3]: no activity; off-target activity at AspAT (in words) [4]: weakly affects
gabaculine [Compound 23, reference compound] | equally potent irreversible inhibitor | 0.82 µM |  |  | 
